Data on 22 compounds can be found in US20260116868A1 (Arcus Biosciences, Inc., priority 2023, published 2026).

Some results are limits rather than exact numbers.

This assay deals with T1, Cbl-b (Homo sapiens, UniProt Q13191).
T1 construct: biotin (biotinylated protein)
Put plainly: Cbl-b probe displacement HTRF binding assay. To be noted: 0.4 nM Cbl-b, 150 nM BODIPY probe. How it is done:
The affinity with which compounds of the present disclosure bind to Cbl-b was assessed using probe displacement homologous time resolved fluorescence (HTRF) assays. The assays used a BODIPY™ conjugated probe (Example 54 from WO 2020264398) and biotinylated Cbl-b. The assays were performed in assay buffer consisting of 20 mM Hepes, 150 mM NaCl, 0.01% Triton X-100, 0.5 mM TCEP, 0.01% BSA. On the day of the assay, a 20 point, 1:2 master serial dilution of each compound was prepared in DMSO to span a final concentration range of […] to 0 nM. Two hundred nanoliters of diluted compound was added to each well of a 384-well plate. Fifteen microliters of biotinylated- Cbl-b resuspended in assay buffer were added to each well and the plate incubated for 60 minutes at room temperature prior to addition of 5 μL of BODIPY™ probe in assay buffer. Final assay conditions included 0.4 nM of Cbl-b and 150 nM of BODIPY™ probe. After a further 15 minutes of incubation at room temperature, 5 μl of Streptavidin-Terbium cryptate reagent at 5-fold final concentration was added to each well of the 384-well plate. Binding of a probe to Cbl-b results in an increase of HTRF signal. HTRF signal was measured by Envision plate reader, while competition of a compound of the present disclosure with probe results in a decrease of signal. Percentage maximum activity in each test well was calculated based on DMSO (maximum activity, 0% displacement) and no protein control wells (baseline activity, 100% displacement). Binding affinity was determined from a dose response curve fitted using a standard four parameter fit equation. See Table 7 for data for compounds (Cbl-b Binding (IC50)).

T1 sequence (Q13191 whole entry, species assumed): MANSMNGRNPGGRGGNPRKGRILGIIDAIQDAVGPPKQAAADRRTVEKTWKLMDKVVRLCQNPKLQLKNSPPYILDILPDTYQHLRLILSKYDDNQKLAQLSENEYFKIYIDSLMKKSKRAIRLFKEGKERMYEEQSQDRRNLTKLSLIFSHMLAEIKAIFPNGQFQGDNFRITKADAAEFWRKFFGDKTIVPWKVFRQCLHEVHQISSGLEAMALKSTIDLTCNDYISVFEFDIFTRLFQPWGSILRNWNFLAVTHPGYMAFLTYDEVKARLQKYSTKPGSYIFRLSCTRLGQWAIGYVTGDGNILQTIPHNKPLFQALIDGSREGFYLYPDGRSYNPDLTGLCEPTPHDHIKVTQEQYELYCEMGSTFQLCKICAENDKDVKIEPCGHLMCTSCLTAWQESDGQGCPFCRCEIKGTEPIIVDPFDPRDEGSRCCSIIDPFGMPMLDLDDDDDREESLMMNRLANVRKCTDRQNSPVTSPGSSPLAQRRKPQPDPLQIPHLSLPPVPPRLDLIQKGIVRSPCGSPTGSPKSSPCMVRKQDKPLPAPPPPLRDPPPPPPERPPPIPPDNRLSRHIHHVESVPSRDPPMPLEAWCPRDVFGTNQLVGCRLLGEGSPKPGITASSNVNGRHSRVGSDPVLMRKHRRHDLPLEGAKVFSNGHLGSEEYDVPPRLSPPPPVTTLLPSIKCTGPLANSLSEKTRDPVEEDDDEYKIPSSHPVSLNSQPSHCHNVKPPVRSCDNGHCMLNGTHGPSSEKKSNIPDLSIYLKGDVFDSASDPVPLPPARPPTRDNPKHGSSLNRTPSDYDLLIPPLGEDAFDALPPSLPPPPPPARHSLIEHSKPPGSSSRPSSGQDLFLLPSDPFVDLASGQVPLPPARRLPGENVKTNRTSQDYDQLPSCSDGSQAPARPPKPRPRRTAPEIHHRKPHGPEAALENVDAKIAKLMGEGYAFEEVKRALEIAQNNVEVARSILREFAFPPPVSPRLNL

As for `CCOc1cc(-c2c(F)cc(C#N)cc2C(=O)N2CC(F)(F)C2)cc(NC(=O)c2cc(CNC[C@H](C)OC)cn(C)c2=O)n1` [Example 120, N-[4-[4-cyano-2-(3,3-difluoroazetidine-1-carbonyl)-6-fluorophenyl]-6-ethoxypyridin-2-yl]-5-[[[(2S)-2-methoxypropyl]amino]methyl]-1-methyl-2-oxopyridine-3-carboxamide], the IC50 is under 100 nM.

As to `CCOc1cc(-c2ccc(Cl)cc2C(=O)N2CC(F)(F)C2)cc(NC(=O)c2cc(CNCC3(F)CCC3)cn(C3CC3)c2=O)n1` [Example 121, N-(4-{4-chloro-2-[(3,3-difluoro-1-azetidinyl)carbonyl]phenyl}-6-ethoxy-2-pyridyl)-1-cyclopropyl-5-({[(1-fluorocyclobutyl)methyl]amino}methyl)-2-oxo-1,2-dihydronicotinamide], the IC50 was under 100 nM.

`CCOc1cc(-c2ccc(Cl)cc2C(=O)N2CC(F)(F)C2)cc(NC(=O)c2cc(CN[C@@H](C)C3CCC3)cn(C3CC3)c2=O)n1` [Example 122, N-(4-{4-chloro-2-[(3,3-difluoro-1-azetidinyl)carbonyl]phenyl}-6-ethoxy-2-pyridyl)-5-{[(S)-1-cyclobutylethylamino]methyl}-1-cyclopropyl-2-oxo-1,2-dihydronicotinamide] registered an IC50 of under 100 nM.

Regarding `CCOc1cc(-c2ccc(Cl)cc2C(=O)N2CC(F)(F)C2)cc(NC(=O)c2cc(CNC[C@H](C)OC)cn(C3CC3)c2=O)n1` [Example 123, N-(4-{4-chloro-2-[(3,3-difluoro-1-azetidinyl)carbonyl]phenyl}-6-ethoxy-2-pyridyl)-1-cyclopropyl-5-{[(S)-2-methoxypropylamino]methyl}-2-oxo-1,2-dihydronicotinamide], the IC50 was under 100 nM.

In turn, `CCOc1cc(-c2ccc(Cl)cc2C(=O)N2CC(F)(F)C2)cc(NC(=O)c2cc(CN[C@@H](C)C3CC3)cn(C3CC3)c2=O)n1` [Example 124] returned an IC50 of under 100 nM.

As to `CO[C@@H](C)[C@H](C)NCc1cc(C(=O)Nc2cc(-c3c(F)cc(C#N)cc3C(=O)N3CC(F)(F)C3)cc(C3CC3)n2)c(=O)n(C2CC2)c1` [Example 125, N-(4-{4-cyano-2-[(3,3-difluoro-1-azetidinyl)carbonyl]-6-fluorophenyl}-6-cyclopropyl-2-pyridyl)-1-cyclopropyl-5-{[(1S,2S)-2-methoxy-1-methylpropylamino]methyl}-2-oxo-1,2-dihydronicotinamide], the IC50 was under 100 nM.

The compound `CC(C)Oc1cc(-c2c(F)cc(C#N)cc2C(=O)N2CC(F)(F)C2)cc(NC(=O)c2cc(CN[C@@H](C)C3CCC3)cn(C3CC3)c2=O)n1` [Example 126] returned a half-inhibitory concentration (IC50) of under 100 nM.

Take `CO[C@@H](C)CNCc1cc(C(=O)Nc2cc(-c3c(F)cc(C#N)cc3C(=O)N3CC(F)(F)C3)cc(OC(C)C)n2)c(=O)n(C2CC2)c1` [Example 127, N-(4-{4-cyano-2-[(3,3-difluoro-1-azetidinyl)carbonyl]-6-fluorophenyl}-6-isopropoxy-2-pyridyl)-1-cyclopropyl-5-{[(S)-2-methoxypropylamino]methyl}-2-oxo-1,2-dihydronicotinamide]: the IC50 is under 100 nM.

In turn, `CC(C)CNCc1cc(C(=O)Nc2cc(-c3c(F)cc(C#N)cc3C(=O)N3CC(F)(F)C3)cc(OC(C)C)n2)c(=O)n(C2CC2)c1` [Example 128, N-(4-{4-cyano-2-[(3,3-difluoro-1-azetidinyl)carbonyl]-6-fluorophenyl}-6-isopropoxy-2-pyridyl)-1-cyclopropyl-5-[(isobutylamino)methyl]-2-oxo-1,2-dihydronicotinamide] returned an IC50 of under 100 nM.

In turn, `CC(C)CNCc1cc(C(=O)Nc2cc(-c3ccc(C#N)cc3C(=O)N3CC(F)(F)C3)cc(OCC(F)F)n2)c(=O)n(C2CC2)c1` [Example 129, N-(4-{4-cyano-2-[(3,3-difluoro-1-azetidinyl)carbonyl]phenyl}-6-(2,2-difluoroethoxy)-2-pyridyl)-1-cyclopropyl-5-[(isobutylamino)methyl]-2-oxo-1,2-dihydronicotinamide] came in with an IC50 of under 100 nM.

Consider `C[C@H](NCc1cc(C(=O)Nc2cc(-c3ccc(C#N)cc3C(=O)N3CC(F)(F)C3)cc(OCC(F)F)n2)c(=O)n(C2CC2)c1)C1CCC1` [Example 130, N-(4-{4-cyano-2-[(3,3-difluoro-1-azetidinyl)carbonyl]phenyl}-6-(2,2-difluoroethoxy)-2-pyridyl)-5-{[(S)-1-cyclobutylethylamino]methyl}-1-cyclopropyl-2-oxo-1,2-dihydronicotinamide], for which the IC50 is under 100 nM.

The compound `CO[C@@H](C)CNCc1cc(C(=O)Nc2cc(-c3ccc(C#N)cc3C(=O)N3CC(F)(F)C3)cc(OCC(F)F)n2)c(=O)n(C2CC2)c1` [Example 131, N-(4-{4-cyano-2-[(3,3-difluoro-1-azetidinyl)carbonyl]phenyl}-6-(2,2-difluoroethoxy)-2-pyridyl)-1-cyclopropyl-5-{[(S)-2-methoxypropylamino]methyl}-2-oxo-1,2-dihydronicotinamide] had an IC50 of under 100 nM.

The compound `N#Cc1ccc(-c2cc(NC(=O)c3cc(CNC[C@@H]4CCCO4)cn(C4CC4)c3=O)nc(OCC(F)F)c2)c(C(=O)N2CC(F)(F)C2)c1` [Example 132, N-(4-{4-cyano-2-[(3,3-difluoro-1-azetidinyl)carbonyl]phenyl}-6-(2,2-difluoroethoxy)-2-pyridyl)-1-cyclopropyl-2-oxo-5-[({[(S)-perhydro-2-furyl]methyl}amino)methyl]-1,2-dihydronicotinamide] yielded a half-inhibitory concentration (IC50) of under 100 nM.

`O=C(Nc1cc(-c2ccc(Cl)cc2C(=O)N2CC(F)(F)C2)cc(C2CC2)n1)c1cc(CNC[C@@H]2COCCO2)cn(C2CC2)c1=O` [Example 133, N-(4-{4-chloro-2-[(3,3-difluoro-1-azetidinyl)carbonyl]phenyl}-6-cyclopropyl-2-pyridyl)-1-cyclopropyl-5-[({[(R)-1,4-dioxan-2-yl]methyl}amino)methyl]-2-oxo-1,2-dihydronicotinamide] showed an IC50 of under 100 nM.

The compound `CC(C)CNCc1cc(C(=O)Nc2cc(-c3ccc(Cl)cc3C(=O)N3CC(F)(F)C3)cc(C3CC3)n2)c(=O)n(C2CC2)c1` [Example 134, N-(4-{4-chloro-2-[(3,3-difluoro-1-azetidinyl)carbonyl]phenyl}-6-cyclopropyl-2-pyridyl)-1-cyclopropyl-5-[(isobutylamino)methyl]-2-oxo-1,2-dihydronicotinamide] showed an IC50 of under 100 nM.

In the case of `C[C@H](NCc1cc(C(=O)Nc2cc(-c3ccc(Cl)cc3C(=O)N3CC(F)(F)C3)cc(C3CC3)n2)c(=O)n(C2CC2)c1)C1CC1` [Example 135, N-(4-{4-chloro-2-[(3,3-difluoro-1-azetidinyl)carbonyl]phenyl}-6-cyclopropyl-2-pyridyl)-1-cyclopropyl-5-{[(S)-1-cyclopropylethylamino]methyl}-2-oxo-1,2-dihydronicotinamide], the IC50 was under 100 nM.

`O=C(Nc1cc(-c2ccc(Cl)cc2C(=O)N2CC(F)(F)C2)cc(C2CC2)n1)c1cc(CNCCCF)cn(C2CC2)c1=O` [Example 136, N-(4-{4-chloro-2-[(3,3-difluoro-1-azetidinyl)carbonyl]phenyl}-6-cyclopropyl-2-pyridyl)-1-cyclopropyl-5-[(3-fluoropropylamino)methyl]-2-oxo-1,2-dihydronicotinamide] gave an IC50 of under 100 nM.

For `CO[C@@H](C)CNCc1cc(C(=O)Nc2cc(-c3ccc(F)cc3C(=O)N3CC(F)(F)C3)cc(OC(C)C)n2)c(=O)n(C2CC2)c1` [Example 137, N-(4-{2-[(3,3-difluoro-1-azetidinyl)carbonyl]-4-fluorophenyl}-6-isopropoxy-2-pyridyl)-1-cyclopropyl-5-{[(S)-2-methoxypropylamino]methyl}-2-oxo-1,2-dihydronicotinamide], the IC50 was under 100 nM.

Consider `CC(C)Oc1cc(-c2ccc(F)cc2C(=O)N2CC(F)(F)C2)cc(NC(=O)c2cc(CNC[C@@H]3CCCO3)cn(C3CC3)c2=O)n1` [Example 138, N-(4-{2-[(3,3-difluoro-1-azetidinyl)carbonyl]-4-fluorophenyl}-6-isopropoxy-2-pyridyl)-1-cyclopropyl-2-oxo-5-[({[(S)-perhydro-2-furyl]methyl}amino)methyl]-1,2-dihydronicotinamide], for which the IC50 is under 100 nM.

For `CC(C)Oc1cc(-c2ccc(F)cc2C(=O)N2CC(F)(F)C2)cc(NC(=O)c2cc(CNCC3CC3)cn(C3CC3)c2=O)n1` [Example 139, N-(4-{2-[(3,3-difluoro-1-azetidinyl)carbonyl]-4-fluorophenyl}-6-isopropoxy-2-pyridyl)-1-cyclopropyl-5-{[(cyclopropylmethyl)amino]methyl}-2-oxo-1,2-dihydronicotinamide], the IC50 is under 100 nM.

`CC(C)Oc1cc(-c2ccc(C#N)cc2C(=O)N2CC(F)(F)C2)cc(NC(=O)c2cc(CNCC3(F)CCC3)cn(C3CC3)c2=O)n1` [Example 141] returned an IC50 of under 100 nM.

The compound `CO[C@@H](C)[C@H](C)NCc1cc(C(=O)Nc2cc(-c3ccc(C#N)cc3C(=O)N3CC(F)(F)C3)cc(OC(C)C)n2)c(=O)n(C2CC2)c1` [Example 142] registered an IC50 of under 100 nM.
